In patent publication US10821100B2, “Triazolone compounds as mPGES-1 inhibitors” (Glenmark Pharmaceuticals S.A., priority 2012, dated 2020):

Biological target: T1, Recombinant human mPGES-1 (Homo sapiens, UniProt O14684)
T1 construct: made in house; host or cells: CHO cells (crude microsomal fractions)
T1 sequence (O14684 1-152): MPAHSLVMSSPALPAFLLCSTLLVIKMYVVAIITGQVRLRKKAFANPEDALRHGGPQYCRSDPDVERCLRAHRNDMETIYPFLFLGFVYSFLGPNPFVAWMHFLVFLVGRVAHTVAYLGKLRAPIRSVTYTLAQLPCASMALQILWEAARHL
Assay: In-vitro screening of mPGES-1 inhibitors (inhibition of PGE2 formation from PGH2, HTRF detection)
Type: biochemical
Conditions: mPGES-1 enzyme; for inhibition at 1 µM: 1 μM test compound, read-out: Percentage inhibition at 1 μM; for inhibition at 1 µM / inhibition at 10 µM: crude microsomal fractions; for inhibition at 10 µM: 10 μM test compound, read-out: Percentage inhibition at 10 μM; for IC50: class symbols
In short: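 PGH2-to-PGE2 isomerization run for 1 min with 15 μM PGH2 after 10 min compound preincubation with microsomal enzyme (40–60 μg/mL) and 2.5 mM GSH, pH buffer 0.1 M potassium phosphate with EDTA. Stannous chloride quench, HTRF PGE2 readout, IC50 fitted against uninhibited reaction.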

Row | Compound | inhibition at 1 µM [%] | inhibition at 10 µM [%] | IC50 [nM]
1 | O=C(NCc1ccc(Cl)c(-n2nc(-c3ccc(C#Cc4ccc(C(F)(F)F)cc4Cl)cc3F)[nH]c2=O)c1)C1CC1 [Example-82, N-(4-Chloro-3-(3-(4-((2-chloro-4-(trifluoromethyl)phenyl)ethynyl)-2-fluorophenyl)-5-oxo-4,5-dihydro-1H-1,2,4-triazol-1-yl)benzyl)cyclopropanecarboxamide] | 98.3 | 99 | < 50
2 | CC(C)(C)C(=O)NCc1ccc(Cl)c(-c2nn(-c3ccc(Cl)c(Cl)c3)c(=O)[nH]2)c1F [Example-83, N-(4-Chloro-3-(1-(3,4-dichlorophenyl)-5-oxo-4,5-dihydro-1H-1,2,4-triazol-3-yl)-2-fluorobenzyl)pivalamide] | 97.5 | 99.9 | < 50
3 | CC(C)(C)C(=O)NCc1ccc(Cl)c(-c2nn(-c3ccc(C(F)(F)F)cc3)c(=O)[nH]2)c1F [Example-84, N-(4-Chloro-2-fluoro-3-(5-oxo-1-(4-(trifluoromethyl)phenyl)-4,5-dihydro-1H-1,2,4-triazol-3-yl)benzyl)pivalamide] | 98.8 | 99.5 | < 50
4 | CC(C)(C)C(=O)NCc1ccc(Cl)c(-c2nn(-c3ccc(F)cc3F)c(=O)[nH]2)c1F [Example-85, N-(4-Chloro-j-(1-(2,4-difluorophenyl)-5-oxo-4,5-dihydro-1H-1,2,4-triazol-3-yl)-2-fluorobenzyl)pivalamide] | 22.6 | 69.3 | –
5 | COc1ccc(-n2nc(-c3c(Cl)ccc(CNC(=O)C(C)(C)C)c3F)[nH]c2=O)cc1 [Example-86, N-(4-Chloro-2-fluoro-3-(1-(4-methoxyphenyl)-5-oxo-4,5-dihydro-1H-1,2,4-triazol-3-yl)benzyl)pivalamide] | 79.9 | 96.7 | > 100
6 | CC(C)(C)C(=O)NCc1ccc(Cl)c(-n2nc(-c3ccc(C(F)(F)F)cc3F)[nH]c2=O)c1F [Example-87, N-(4-Chloro-2-fluoro-3-(3-(2-fluoro-4-(trifluoromethyl)phenyl)-5-oxo-4,5-dihydro-1H-1,2,4-triazol-1-yl)benzyl)pivalamide] | 93.4 | 99.2 | 50 to 100
7 | CC(C)(C)C(=O)NCc1ccc(Cl)c(-n2nc(-c3c(F)cccc3Cl)[nH]c2=O)c1F [Example-88, N-(4-Chloro-3-(3-(2-chloro-6-fluorophenyl)-5-oxo-4,5-dihydro-1H-1,2,4-triazol-1-yl)-2-fluorobenzyl)pivalamide] | 3.34 | 39.2 | –
8 | CC(C)(C)C(=O)NCc1ccc(Cl)c(-c2nn(-c3ccc(C#N)cc3)c(=O)[nH]2)c1F [Example-89, N-(4-chloro-3-(1-(4-cyanophenyl)-5-oxo-4,5-dihydro-1H-1,2,4-triazol-3-yl)-2-fluorobenzyl)pivalamide] | 95.3 | 99.1 | < 50
9 | CC(C)(C)C(=O)NCc1ccc(Cl)c(-n2nc(-c3ccc(Cl)cc3F)[nH]c2=O)c1F [Example-90, N-(4-Chloro-3-(3-(4-chloro-2-fluorophenyl)-5-oxo-4,5-dihydro-1H-1,2,4-triazol-1-yl)-2-fluorobenzyl)pivalamide] | 81.7 | 97.2 | > 100
10 | O=C(NCc1ccc(Cl)c(-n2nc(-c3ccc(Cl)cc3F)[nH]c2=O)c1)C1CC1 [Example-91, N-(4-Chloro-3-(3-(4-chloro-2-fluorophenyl)-5-oxo-4,5-dihydro-1H-1,2,4-triazol-1-yl)benzyl)cyclopropanecarboxamide] | 66.2 | 94.3 | –
11 | O=C(NCc1ccc(Cl)c(-n2nc(-c3ccc(C(F)(F)F)cc3F)[nH]c2=O)c1)C1CC1 [Example-92, N-(4-Chloro-3-(3-(2-fluoro-4-(trifluoromethyl)phenyl)-5-oxo-4,5-dihydro-1H-1,2,4-triazol-1-yl)benzyl)cyclopropanecarboxamide] | 76 | 99.4 | > 100
12 | CC(C)(C)C(=O)NCc1ccc(Cl)c(-n2nc(-c3ccc(C(F)(F)F)cc3)[nH]c2=O)c1F [Example-93, N-(4-Chloro-2-fluoro-3-(5-oxo-3-(4-(trifluoromethyl)phenyl)-4,5-dihydro-1H-1,2,4-triazol-1-yl)benzyl)pivalamide] | 96.8 | 99.6 | < 50
13 | CC(C)(C)C(=O)NCc1ccc(Cl)c(-c2nn(-c3ccc(C(F)(F)F)cn3)c(=O)[nH]2)c1F [Example-94, N-(4-Chloro-2-fluoro-3-(5-oxo-1-(5-(trifluoromethyl)pyridin-2-yl)-4,5-dihydro-1H-1,2,4-triazol-3-yl)benzyl)pivalamide] | 87 | 100 | > 100
14 | CC(C)(C)C(=O)NCc1ccc(Cl)c(-c2nn(-c3ccc(C(F)(F)F)nc3)c(=O)[nH]2)c1F [Example-95, N-(4-Chloro-2-fluoro-3-(5-oxo-1-(6-(trifluoromethyl)pyridin-3-yl)-4,5-dihydro-1H-1,2,4-triazol-3-yl)benzyl)pivalamide] | 98.7 | 99 | < 50
15 | O=c1[nH]c(-c2cc(S(=O)(=O)NC3CC3)ccc2Cl)nn1-c1ccc(C(F)(F)F)cc1 [Example-96, 4-Chloro-N-cyclopropyl-3-(5-oxo-1-(4-(trifluoromethyl)phenyl)-4,5-dihydro-1H-1,2,4-triazol-3-yl)benzenesulfonamide] | 52.2 | 68.7 | –
16 | O=c1[nH]c(-c2cc(S(=O)(=O)NC3CC3)ccc2Cl)nn1-c1ccc(Cl)cc1 [Example-97, 4-Chloro-3-(1-(4-chlorophenyl)-5-oxo-4,5-dihydro-1H-1,2,4-triazol-3-yl)-N-cyclopropylbenzenesulfonamide] | 20.2 | 6.88 | –
17 | CC(C)(C)C(=O)NCc1ccc(Cl)c(-c2nn(-c3ccc(Cl)cc3)c(=O)[nH]2)c1F [Example-98, N-(4-Chloro-3-(1-(4-chlorophenyl)-5-oxo-4,5-dihydro-1H-1,2,4-triazol-3-yl)-2-fluorobenzyl)pivalamide] | 97.5 | 99.5 | < 50
18 | O=C(NCc1ccc(Cl)c(-c2nn(-c3ccc(C(F)(F)F)cc3)c(=O)[nH]2)c1)C(F)(F)F [Example-99, N-(4-Chloro-3-(5-oxo-1-(4-(trifluoromethyl)phenyl)-4,5-dihydro-1H-1,2,4-triazol-3-yl)benzyl)-2,2,2-trifluoroacetamide] | 95.3 | 98.5 | < 50
19 | CC(C)(C)C(=O)NCc1ccc(Cl)c(-c2nn(-c3ccc(C(F)(F)F)cc3)c(=O)[nH]2)c1 [Example-100, N-(4-Chloro-3-(5-oxo-1-(4-(trifluoromethyl)phenyl)-4,5-dihydro-1H-1,2,4-triazol-3-yl)benzyl)pivalamide] | 100 | 98.6 | < 50
20 | O=C(NCc1ccc(Cl)c(-c2nn(-c3ccc(C(F)(F)F)cc3)c(=O)[nH]2)c1)[C@H]1CCCO1 [Example-101, (R)—N-(4-Chloro-3-(5-oxo-1-(4-(trifluoromethyl)phenyl)-4,5-dihydro-1H-1,2,4-triazol-3-yl)benzyl)tetrahydrofuran-2-carboxamide] | 95 | 98.2 | < 50
21 | O=c1[nH]c(-c2cc(CNS(=O)(=O)C3CC3)ccc2Cl)nn1-c1ccc(C(F)(F)F)cc1 [Example-102, N-(4-Chloro-3-(5-oxo-1-(4-(trifluoromethyl)phenyl)-4,5-dihydro-1H-1,2,4-triazol-3-yl)benzyl)cyclopropanesulfonamide] | 96.5 | 98 | < 50
22 | CC(C)(C)C(=O)NCc1ccc(Cl)c(-c2nn(C3CCCCC3)c(=O)[nH]2)c1F [Example-103, N-(4-Chloro-3-(1-cyclohexyl-5-oxo-4,5-dihydro-1H-1,2,4-triazol-3-yl)-2-fluorobenzyl)pivalamide] | 19.9 | 51.1 | –
23 | O=C(NCc1ccc(Cl)c(-c2nn(-c3ccc(C(F)(F)F)cc3)c(=O)[nH]2)c1)c1ccccc1F [Example-104, N-(4-Chloro-3-(5-oxo-1-(4-(trifluoromethyl)phenyl)-4,5-dihydro-1H-1,2,4-triazol-3-yl)benzyl)-2-fluorobenzamide] | 96.9 | 99.5 | < 50
24 | O=C(NCc1ccc(Cl)c(-c2nn(-c3ccc(C(F)(F)F)cc3)c(=O)[nH]2)c1)c1ccno1 [Example-105, N-(4-Chloro-3-(5-oxo-1-(4-(trifluoromethyl)phenyl)-4,5-dihydro-H-1,2,4-triazol-3-yl)benzyl)isoxazole-5-carboxamide] | 73.9 | 96 | > 100
25 | Cc1ccc(CNC(=O)C(F)(F)F)c(C)c1-c1nn(-c2ccc(C(F)(F)F)cc2)c(=O)[nH]1 [Example-106, N-(3-(1-(4-(trifluoromethyl)phenyl)-4,5-dihydro-5-oxo-1H-1,2,4-triazol-3-yl)-2,4-dimethylbenzyl)-2,2,2-trifluoroacetamide] | 92 | 96.8 | > 100
26 | Cc1ccc(CNC(=O)[C@H]2CCCO2)c(C)c1-c1nn(-c2ccc(C(F)(F)F)cc2)c(=O)[nH]1 [Example-107, (R)—N-(2,4-Dimethyl-3-(5-oxo-1-(4-(trifluoromethyl)phenyl)-4,5-dihydro-1H-1,2,4-triazol-3-yl)benzyl)tetrahydrofuran-2-carboxamide] | 56.1 | 90.5 | –
